Assay results as given in ChEMBL document CHEMBL1201862, “PubChem BioAssay data set” (2004).
Calls of active or inactive are those of the source.

Legend:
Procathepsin L = Procathepsin L (Homo sapiens, UniProt P07711)
Aspartyl aminopeptidase = Aspartyl aminopeptidase (Plasmodium falciparum 3D7, UniProt Q8I2J3)
[1] = cytotoxicity in HEK-293T cells, dose response, cytotoxicity control for BCR NF-kB inhibitor project, luminescence, B-cell screen hits (AID 489021); format: functional, cell-based;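 note: HEK-293T cells carrying an NF-kB luciferase reporter; cells exposed to compound for about 14 hours before viability readout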
Troponin, cardiac muscle = Troponin, cardiac muscle (Homo sapiens, UniProt P19429+P45379+P63316); assay: Fluorescence-based biochemical high throughput dose response assay for activators of the calcium sensitivity of cardiac Regulated Thin Filaments (RTF). [Related pubchem assays (depositor defined):AID493008, AID493018, AID504382, AID504383]; format: protein-complex assay
[2] = target: T1, Neuropeptides B/W receptor type 1 (Homo sapiens, UniProt P48145); assay: GPR7 antagonist potency, late-stage follow-up, cell-based, fluorescence, dose response (AID 463251); format: functional
T1 sequence (P48145 whole entry): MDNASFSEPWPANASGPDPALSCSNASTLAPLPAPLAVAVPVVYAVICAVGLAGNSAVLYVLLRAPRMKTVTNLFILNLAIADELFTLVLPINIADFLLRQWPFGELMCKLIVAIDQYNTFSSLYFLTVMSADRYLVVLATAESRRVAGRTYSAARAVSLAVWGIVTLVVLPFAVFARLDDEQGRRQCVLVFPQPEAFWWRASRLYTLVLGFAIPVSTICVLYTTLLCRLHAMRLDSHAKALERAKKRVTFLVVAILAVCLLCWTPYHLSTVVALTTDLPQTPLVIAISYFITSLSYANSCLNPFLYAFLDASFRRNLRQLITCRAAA

[3] = target: Melanin-concentrating hormone receptor 1 (Homo sapiens, UniProt Q99705); assay: Late-stage fluorescence-based counterscreen for antagonists of the G-protein coupled receptor 7 (GPR7): cell-based dose response assay to identify antagonists of the melanin-concentrating hormone receptor 1 (MCHR1). [Related pubchem assays (depositor defined):AID1861, AID1880, AID1952, AID2148, AID2251, AID2257, AID485339]; format: functional;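 note: stimulated with 30 nM MCH peptide agonist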
Sequence of Melanin-concentrating hormone receptor 1 (Q99705 whole entry): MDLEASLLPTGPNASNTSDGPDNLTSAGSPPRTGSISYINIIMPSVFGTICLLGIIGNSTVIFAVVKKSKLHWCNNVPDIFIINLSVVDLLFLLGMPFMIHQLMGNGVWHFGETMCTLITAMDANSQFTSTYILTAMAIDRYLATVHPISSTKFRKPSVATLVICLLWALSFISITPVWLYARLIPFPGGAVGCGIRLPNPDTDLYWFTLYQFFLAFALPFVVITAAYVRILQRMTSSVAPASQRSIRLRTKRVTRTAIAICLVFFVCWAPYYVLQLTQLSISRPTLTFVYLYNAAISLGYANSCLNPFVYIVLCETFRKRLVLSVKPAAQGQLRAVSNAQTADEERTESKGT

Cytochrome P450 2D6 [4] = target: T2, Cytochrome P450 2D6 (Homo sapiens, UniProt P10635);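 note: CYP2D6 member of a cytochrome P450 panel assay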
T2 sequence (P10635 whole entry): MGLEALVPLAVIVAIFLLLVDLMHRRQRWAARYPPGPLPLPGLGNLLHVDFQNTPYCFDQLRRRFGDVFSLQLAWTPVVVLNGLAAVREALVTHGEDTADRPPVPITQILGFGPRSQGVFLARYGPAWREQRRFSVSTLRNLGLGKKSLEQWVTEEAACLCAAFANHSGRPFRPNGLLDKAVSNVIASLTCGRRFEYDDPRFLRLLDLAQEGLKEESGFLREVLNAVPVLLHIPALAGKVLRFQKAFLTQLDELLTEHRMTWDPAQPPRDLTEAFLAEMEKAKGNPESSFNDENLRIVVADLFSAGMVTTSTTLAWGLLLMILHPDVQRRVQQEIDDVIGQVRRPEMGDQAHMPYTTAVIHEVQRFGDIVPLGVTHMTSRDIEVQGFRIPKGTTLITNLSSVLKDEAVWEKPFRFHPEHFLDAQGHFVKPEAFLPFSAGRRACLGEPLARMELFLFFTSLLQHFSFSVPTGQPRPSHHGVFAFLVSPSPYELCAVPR

Beta-galactosidase = Beta-galactosidase (Escherichia coli, UniProt Q8VNN2); format: functional
[5] = target: T3, Delta-type opioid receptor (Homo sapiens, UniProt P41143); assay: HTS Image-Based Screen for Agonists of the DOR Receptor. [Related pubchem assays (depositor defined):AID1777, AID1786, AID2133]; format: functional
T3 sequence (P41143 whole entry): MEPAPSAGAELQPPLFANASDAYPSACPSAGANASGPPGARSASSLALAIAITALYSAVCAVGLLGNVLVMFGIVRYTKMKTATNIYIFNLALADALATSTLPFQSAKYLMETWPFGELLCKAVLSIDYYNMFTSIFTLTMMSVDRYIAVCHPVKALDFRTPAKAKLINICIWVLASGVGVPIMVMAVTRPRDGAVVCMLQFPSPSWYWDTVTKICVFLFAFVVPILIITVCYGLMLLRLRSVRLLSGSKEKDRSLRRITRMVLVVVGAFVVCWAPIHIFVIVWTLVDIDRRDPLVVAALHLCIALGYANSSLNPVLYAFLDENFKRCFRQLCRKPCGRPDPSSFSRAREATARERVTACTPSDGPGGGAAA

[6] = target: T3, Delta-type opioid receptor; assay: HTS Image-Based Screen for Antagonists of the DOR Receptor. [Related pubchem assays (depositor defined):AID1777, AID1785, AID1786, AID2133]; format: functional
Mu-type opioid receptor = Mu-type opioid receptor (Homo sapiens, UniProt P35372); assay: HTS Image-Based Screen for Agonists of the MOR Receptor. [Related pubchem assays (depositor defined):AID1777, AID1785, AID1786, AID2133]; format: functional;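 note: imaging of beta-arrestin GFP recruitment into spots after receptor activation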
[7] = target: T4, Kappa-type opioid receptor (Homo sapiens, UniProt P41145); format: functional
T4 sequence (P41145 whole entry): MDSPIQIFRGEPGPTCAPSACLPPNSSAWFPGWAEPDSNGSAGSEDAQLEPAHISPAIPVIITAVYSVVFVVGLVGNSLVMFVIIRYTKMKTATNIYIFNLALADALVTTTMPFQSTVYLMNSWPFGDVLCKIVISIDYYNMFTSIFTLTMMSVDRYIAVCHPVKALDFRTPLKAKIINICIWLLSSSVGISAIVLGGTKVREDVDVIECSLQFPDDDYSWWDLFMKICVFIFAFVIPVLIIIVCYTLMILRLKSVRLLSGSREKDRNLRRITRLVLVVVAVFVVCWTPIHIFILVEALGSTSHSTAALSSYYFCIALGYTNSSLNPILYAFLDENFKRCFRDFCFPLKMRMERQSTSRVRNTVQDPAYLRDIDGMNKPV

[8] = target: T4, Kappa-type opioid receptor; format: functional; remark: listed apart in the source
[9] = target: T5, Voltage-gated N-type calcium channel alpha-1B subunit/Amyloid beta A4 precursor protein-binding family A member 1 (Homo sapiens, UniProt Q00975+Q02410); format: protein assay
T5 sequence (Q00975 whole entry): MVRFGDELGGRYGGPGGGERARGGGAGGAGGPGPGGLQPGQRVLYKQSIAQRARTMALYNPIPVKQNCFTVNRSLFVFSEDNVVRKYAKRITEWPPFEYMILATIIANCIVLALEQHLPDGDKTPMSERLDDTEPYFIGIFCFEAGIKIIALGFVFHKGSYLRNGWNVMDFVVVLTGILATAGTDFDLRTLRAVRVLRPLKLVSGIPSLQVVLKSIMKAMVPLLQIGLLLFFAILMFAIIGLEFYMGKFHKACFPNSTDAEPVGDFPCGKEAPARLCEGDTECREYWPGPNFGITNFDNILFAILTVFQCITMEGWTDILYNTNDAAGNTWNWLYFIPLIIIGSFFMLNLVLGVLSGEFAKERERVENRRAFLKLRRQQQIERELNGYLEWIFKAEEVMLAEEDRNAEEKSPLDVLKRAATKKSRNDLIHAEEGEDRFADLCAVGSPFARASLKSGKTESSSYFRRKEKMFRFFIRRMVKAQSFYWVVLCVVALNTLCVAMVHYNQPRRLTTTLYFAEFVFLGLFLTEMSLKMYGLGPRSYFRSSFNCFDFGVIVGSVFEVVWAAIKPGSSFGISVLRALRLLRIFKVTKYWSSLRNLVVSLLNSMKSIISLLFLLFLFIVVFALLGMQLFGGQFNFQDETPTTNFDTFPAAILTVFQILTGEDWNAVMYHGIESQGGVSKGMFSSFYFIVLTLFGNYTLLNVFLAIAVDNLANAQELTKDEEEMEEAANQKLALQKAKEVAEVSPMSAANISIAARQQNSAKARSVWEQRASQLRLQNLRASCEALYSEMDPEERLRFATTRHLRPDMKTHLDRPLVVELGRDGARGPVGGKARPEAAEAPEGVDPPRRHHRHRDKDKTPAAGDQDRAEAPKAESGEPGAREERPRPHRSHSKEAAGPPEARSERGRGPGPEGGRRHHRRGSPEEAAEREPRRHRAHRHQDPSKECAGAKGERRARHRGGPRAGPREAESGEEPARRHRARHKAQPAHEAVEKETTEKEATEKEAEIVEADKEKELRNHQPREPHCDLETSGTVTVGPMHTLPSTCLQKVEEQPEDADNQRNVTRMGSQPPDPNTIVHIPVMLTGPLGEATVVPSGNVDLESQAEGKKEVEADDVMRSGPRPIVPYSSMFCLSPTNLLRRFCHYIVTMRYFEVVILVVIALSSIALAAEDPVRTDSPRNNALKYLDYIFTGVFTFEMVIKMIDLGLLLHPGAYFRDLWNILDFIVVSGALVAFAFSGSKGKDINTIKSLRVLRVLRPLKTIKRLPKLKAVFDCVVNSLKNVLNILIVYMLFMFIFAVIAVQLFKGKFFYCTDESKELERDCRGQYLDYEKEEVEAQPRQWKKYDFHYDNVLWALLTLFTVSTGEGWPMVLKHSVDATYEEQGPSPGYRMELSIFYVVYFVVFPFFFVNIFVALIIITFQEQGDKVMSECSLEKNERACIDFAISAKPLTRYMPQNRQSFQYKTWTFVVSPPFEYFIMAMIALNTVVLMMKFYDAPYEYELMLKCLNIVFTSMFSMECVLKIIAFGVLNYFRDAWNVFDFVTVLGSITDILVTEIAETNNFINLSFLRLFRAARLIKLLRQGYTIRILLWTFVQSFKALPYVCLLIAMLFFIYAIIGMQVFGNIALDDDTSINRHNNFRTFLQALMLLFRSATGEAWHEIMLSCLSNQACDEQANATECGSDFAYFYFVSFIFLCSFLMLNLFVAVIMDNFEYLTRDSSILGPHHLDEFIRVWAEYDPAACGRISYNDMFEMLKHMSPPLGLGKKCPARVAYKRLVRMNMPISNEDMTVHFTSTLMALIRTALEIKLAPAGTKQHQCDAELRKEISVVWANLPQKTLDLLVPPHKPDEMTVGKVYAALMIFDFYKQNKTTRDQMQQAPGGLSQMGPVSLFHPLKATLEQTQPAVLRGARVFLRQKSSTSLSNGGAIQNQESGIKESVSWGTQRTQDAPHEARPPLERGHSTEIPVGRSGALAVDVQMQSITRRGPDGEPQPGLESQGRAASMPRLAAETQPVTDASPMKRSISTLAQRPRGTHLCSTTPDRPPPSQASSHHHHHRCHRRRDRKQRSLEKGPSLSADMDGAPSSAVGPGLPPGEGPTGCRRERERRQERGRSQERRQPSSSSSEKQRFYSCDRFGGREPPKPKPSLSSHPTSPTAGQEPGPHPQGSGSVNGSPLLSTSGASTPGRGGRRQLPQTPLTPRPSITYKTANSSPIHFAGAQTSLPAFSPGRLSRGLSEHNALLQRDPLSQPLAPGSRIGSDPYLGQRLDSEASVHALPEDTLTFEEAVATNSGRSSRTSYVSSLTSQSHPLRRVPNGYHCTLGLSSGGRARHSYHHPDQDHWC
T5 sequence (Q02410 whole entry): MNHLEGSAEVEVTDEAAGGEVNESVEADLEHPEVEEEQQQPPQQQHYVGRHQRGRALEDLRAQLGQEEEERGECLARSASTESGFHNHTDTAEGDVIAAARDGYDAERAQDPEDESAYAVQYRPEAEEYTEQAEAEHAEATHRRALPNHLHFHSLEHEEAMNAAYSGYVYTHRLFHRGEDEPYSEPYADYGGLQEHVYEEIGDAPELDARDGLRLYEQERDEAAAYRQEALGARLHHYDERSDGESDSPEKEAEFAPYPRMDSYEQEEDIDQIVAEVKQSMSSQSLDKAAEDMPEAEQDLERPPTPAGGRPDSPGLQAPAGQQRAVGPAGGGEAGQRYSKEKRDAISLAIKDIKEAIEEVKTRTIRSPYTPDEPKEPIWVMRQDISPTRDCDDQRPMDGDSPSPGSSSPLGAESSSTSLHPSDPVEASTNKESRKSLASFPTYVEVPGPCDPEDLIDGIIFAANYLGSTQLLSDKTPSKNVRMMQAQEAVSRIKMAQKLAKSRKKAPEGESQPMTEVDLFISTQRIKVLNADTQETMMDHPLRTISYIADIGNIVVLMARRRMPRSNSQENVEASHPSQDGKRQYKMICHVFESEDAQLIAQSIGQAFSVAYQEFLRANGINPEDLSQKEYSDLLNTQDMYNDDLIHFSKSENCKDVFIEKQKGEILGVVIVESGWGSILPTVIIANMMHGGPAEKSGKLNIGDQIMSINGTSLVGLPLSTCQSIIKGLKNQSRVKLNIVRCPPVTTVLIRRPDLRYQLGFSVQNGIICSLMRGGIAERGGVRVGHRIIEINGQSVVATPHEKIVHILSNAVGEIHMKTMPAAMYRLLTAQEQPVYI

[10] = target: T6, Mannose-6-phosphate isomerase (Homo sapiens, UniProt P34949); assay: inhibitors of human PMI, primary screen, biochemical, fluorescence intensity, coupled assay (AID 1209)
T6 sequence (P34949 whole entry): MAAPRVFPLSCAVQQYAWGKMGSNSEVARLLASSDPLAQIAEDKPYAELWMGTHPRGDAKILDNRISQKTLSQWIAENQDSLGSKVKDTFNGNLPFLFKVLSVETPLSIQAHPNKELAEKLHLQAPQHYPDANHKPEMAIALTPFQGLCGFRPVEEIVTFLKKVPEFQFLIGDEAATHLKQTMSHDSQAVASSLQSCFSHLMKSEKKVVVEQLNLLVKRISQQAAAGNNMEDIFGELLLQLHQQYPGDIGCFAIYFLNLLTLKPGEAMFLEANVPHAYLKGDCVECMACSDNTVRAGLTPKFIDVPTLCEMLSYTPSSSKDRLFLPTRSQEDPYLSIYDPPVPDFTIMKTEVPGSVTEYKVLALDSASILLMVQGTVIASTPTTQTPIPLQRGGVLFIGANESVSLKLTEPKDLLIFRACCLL

[11] = target: DNA dC->dU-editing enzyme APOBEC-3A (Homo sapiens, UniProt P31941); assay: APOBEC3A DNA deaminase inhibitors, dose response, biochemical (AID 504722); format: functional
[12] = target: DNA dC->dU-editing enzyme APOBEC-3G (Homo sapiens, UniProt Q9HC16); assay: Dose Response confirmation of small molecule APOBEC3G DNA Deaminase Inhibitors via a fluorescence-based single-stranded DNA deaminase assay. [Related pubchem assays (depositor defined):AID493012, AID493028]; format: functional
[13] = target: T5, Voltage-gated N-type calcium channel alpha-1B subunit/Amyloid beta A4 precursor protein-binding family A member 1; format: protein assay; remark: listed apart in the source
[14] = target: Eukaryotic translation initiation factor 4E (Mus musculus, UniProt P63073); assay: eIF4E–eIF4G protein interaction inhibitors, dose response, biochemical, TR-FRET (AID 855); format: functional;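 note: potency for disrupting eIF4E binding to eIF4GI seen as loss of FRET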
Sequence of Eukaryotic translation initiation factor 4E (P63073 whole entry): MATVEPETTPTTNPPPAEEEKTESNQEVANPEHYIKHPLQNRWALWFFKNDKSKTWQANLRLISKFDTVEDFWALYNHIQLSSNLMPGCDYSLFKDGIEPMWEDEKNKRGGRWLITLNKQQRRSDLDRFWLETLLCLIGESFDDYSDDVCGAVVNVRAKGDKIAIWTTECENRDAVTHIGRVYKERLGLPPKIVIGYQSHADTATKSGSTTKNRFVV

[15] = target: T7, Eukaryotic translation initiation factor 2-alpha kinase 3 (Homo sapiens, UniProt Q9NZJ5); assay: Dose response cell-based high-throughput screening assay to measure PERK inhibition. [Related pubchem assays: 1416 ]; format: functional
T7 sequence (Q9NZJ5 whole entry): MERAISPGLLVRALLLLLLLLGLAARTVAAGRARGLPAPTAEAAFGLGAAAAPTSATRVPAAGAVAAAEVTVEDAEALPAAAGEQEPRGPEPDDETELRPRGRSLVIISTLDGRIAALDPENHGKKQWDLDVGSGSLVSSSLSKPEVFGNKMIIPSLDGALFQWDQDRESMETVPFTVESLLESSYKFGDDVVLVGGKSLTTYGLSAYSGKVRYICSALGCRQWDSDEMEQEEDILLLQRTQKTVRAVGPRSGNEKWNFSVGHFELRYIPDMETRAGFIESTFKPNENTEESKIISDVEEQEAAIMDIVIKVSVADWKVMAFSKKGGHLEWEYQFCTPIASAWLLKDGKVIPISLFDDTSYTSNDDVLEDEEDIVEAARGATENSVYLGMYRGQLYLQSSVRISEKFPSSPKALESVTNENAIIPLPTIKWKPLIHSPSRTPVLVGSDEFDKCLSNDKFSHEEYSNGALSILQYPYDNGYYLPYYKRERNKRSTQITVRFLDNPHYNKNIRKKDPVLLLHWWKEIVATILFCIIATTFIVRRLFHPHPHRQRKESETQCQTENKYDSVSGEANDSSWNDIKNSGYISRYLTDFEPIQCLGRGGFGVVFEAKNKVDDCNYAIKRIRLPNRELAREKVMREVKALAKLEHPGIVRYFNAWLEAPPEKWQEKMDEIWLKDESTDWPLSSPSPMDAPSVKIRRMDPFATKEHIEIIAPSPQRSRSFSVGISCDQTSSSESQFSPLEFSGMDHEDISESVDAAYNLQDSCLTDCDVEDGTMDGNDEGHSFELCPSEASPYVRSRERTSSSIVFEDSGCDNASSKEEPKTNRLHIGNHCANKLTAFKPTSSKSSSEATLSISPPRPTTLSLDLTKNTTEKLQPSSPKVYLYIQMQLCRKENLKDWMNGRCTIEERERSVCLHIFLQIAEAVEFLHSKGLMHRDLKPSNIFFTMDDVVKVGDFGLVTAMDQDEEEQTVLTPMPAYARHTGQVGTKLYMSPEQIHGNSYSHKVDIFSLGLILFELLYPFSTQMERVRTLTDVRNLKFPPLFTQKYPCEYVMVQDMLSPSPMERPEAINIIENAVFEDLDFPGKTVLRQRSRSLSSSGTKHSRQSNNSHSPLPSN

[16] = target: T7, Eukaryotic translation initiation factor 2-alpha kinase 3; assay: Counterscreen assay for PERK inhibitors: Dose response cell-based high throughput screening assay to measure inhibition of PERK at 6 hours. [Related pubchem assays: 1522, 1416 ]; format: functional
Cytochrome P450 2D6 [17] = target: T2, Cytochrome P450 2D6; remark: listed apart in the source

## CCOC(=O)C1=C(CS(=O)(=O)c2ccc(F)cc2)NC(=O)NC1c1ccc(O)c(O)c1 (stereo not given)
Procathepsin L
  IC50: > 59.6 µM (not active)
Aspartyl aminopeptidase
  IC50: 1.52 µM (active)

## COc1ccccc1/C=C1\SC(=S)N(CCC(=O)NC2=NCCS2)C1=O
[1]
  IC50: > 80 µM (inactive)

## CCOC(=O)c1cc2n(c1N)-c1ccccc1C2=O
Troponin, cardiac muscle
  EC50: 24.4 µM (inactive)

## COc1ccc(Oc2c(-c3ccccc3)cnn(-c3ccc(C)cc3)c2=O)cc1
[2]
  IC50: > 20 µM (inactive)
[3]
  IC50: 20 µM (inactive)

## COc1ccc(Oc2c(N3CCCCC3)cnn(-c3ccc(C(C)C)cc3)c2=O)cc1
[2]
  IC50: > 20 µM (inactive)
[3]
  IC50: 5.7 µM (active)

## CC(=O)N1c2ccc(S(=O)(=O)CCC(=O)O)cc2CC1C (stereo not given)
Cytochrome P450 2D6 [4]
  AC50: inconclusive

## COc1ccccc1/N=c1\scc(-c2ccc3c(c2)NC(=O)CO3)n1CC1CCCO1 (stereo not given)
Beta-galactosidase
  EC50: > 31.5 µM (inactive)
[5]
  EC50: > 32 µM (inactive)
[6]
  IC50: > 32 µM (inactive)
Mu-type opioid receptor
  EC50: > 32 µM (inactive)
[7]
  IC50: 5.52 µM (active)
[8]
  IC50: > 32 µM

## N#Cc1cccc(/N=c2\ssnc2Cl)c1
[9]
  IC50: 11.3 µM (active)
[10]
  IC50: 26.7 µM (active)
[11]
  IC50: > 100 µM (inactive)
[12]
  IC50: 7.4 µM (active)
[13]
  IC50: 10.9 µM (active)
[14]
  IC50: 50 µM (inactive)

## C/N=C1\SC(CC(=O)Nc2ccccc2F)C(=O)N1C (stereo not given)
[15]
  EC50: > 55.7 µM (not active)
[16]
  EC50: > 55.7 µM (not active)

## CC(=O)Oc1cc(C(C)C)c(OCCN(C)C)cc1C [MOXISYLYTE]
Cytochrome P450 2D6 [4]
  AC50: 10 µM (inconclusive)
Cytochrome P450 2D6 [17]
  AC50: 10 µM (inconclusive)
